Results taken from PubChem BioAssay (NCI).
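Step 1: Grow cells in 96-well plates. Step 2: Expose to compound for 48 hours at 5 concentrations. Step 3: Interpolate endpoints linearly; if unreached, use highest concentration. GI50 marks 50% less growth. TGI marks complete inhibition of growth.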

How the values were obtained:
Test in all cases: NCI tumour cell line growth inhibition, 48 h
UO-31 renal = test system: UO-31 renal
HOP-92 NSCLC = test system: HOP-92 NSCLC
SF-539 CNS = test system: SF-539 CNS
HCT-15 colon = test system: HCT-15 colon
NCI-H460 lung = test system: NCI-H460 lung
NCI-H226 lung = test system: NCI-H226 lung
MDA-MB-231 breast = test system: MDA-MB-231 breast
HT29 colon = test system: HT29 colon
HL-60(TB) leukemia = test system: HL-60(TB) leukemia
SNB-19 CNS = test system: SNB-19 CNS
HOP-62 NSCLC = test system: HOP-62 NSCLC
786-0 renal = test system: 786-0 renal
MDA-MB-435 = test system: MDA-MB-435
SW-620 colon = test system: SW-620 colon
SK-MEL-2 melanoma = test system: SK-MEL-2 melanoma
OVCAR-3 ovarian = test system: OVCAR-3 ovarian
DU-145 prostate = test system: DU-145 prostate
MCF7 breast = test system: MCF7 breast
LOX IMVI melanoma = test system: LOX IMVI melanoma
OVCAR-4 ovarian = test system: OVCAR-4 ovarian
MOLT-4 leukemia = test system: MOLT-4 leukemia
SK-OV-3 ovarian = test system: SK-OV-3 ovarian
SR leukemia = test system: SR leukemia
SF-268 CNS = test system: SF-268 CNS
SK-MEL-28 melanoma = test system: SK-MEL-28 melanoma
IGROV1 ovarian = test system: IGROV1 ovarian
K-562 leukemia = test system: K-562 leukemia
KM12 colon = test system: KM12 colon
SNB-75 CNS = test system: SNB-75 CNS
A498 renal = test system: A498 renal
RXF 393 renal = test system: RXF 393 renal
NCI-H23 lung = test system: NCI-H23 lung
UACC-257 melanoma = test system: UACC-257 melanoma
OVCAR-5 ovarian = test system: OVCAR-5 ovarian
U251 CNS = test system: U251 CNS
CCRF-CEM leukemia = test system: CCRF-CEM leukemia
NCI-H522 lung = test system: NCI-H522 lung
HS 578T breast = test system: HS 578T breast
T-47D breast = test system: T-47D breast
A549 NSCLC = test system: A549 NSCLC
M14 melanoma = test system: M14 melanoma
HCC-2998 colon = test system: HCC-2998 colon
COLO 205 colon = test system: COLO 205 colon
MALME-3M melanoma = test system: MALME-3M melanoma
NCI/ADR-RES ovarian = test system: NCI/ADR-RES ovarian
SN12C renal = test system: SN12C renal
EKVX NSCLC = test system: EKVX NSCLC
PC-3 prostate = test system: PC-3 prostate
BT-549 breast = test system: BT-549 breast
HCT-116 colon = test system: HCT-116 colon
UACC-62 melanoma = test system: UACC-62 melanoma
SK-MEL-5 melanoma = test system: SK-MEL-5 melanoma
MDA-MB-468 breast = test system: MDA-MB-468 breast
RPMI-8226 leukemia = test system: RPMI-8226 leukemia
TK-10 renal = test system: TK-10 renal
ACHN renal = test system: ACHN renal
OVCAR-8 ovarian = test system: OVCAR-8 ovarian
SF-295 CNS = test system: SF-295 CNS

SMILES: Cc1cc(C(NC(=O)C2CC3(CC(Nc4cccc5c4C(=O)N(C4CCC(=O)NC4=O)C5=O)C3)C2)c2ccc3c(c2)OC(F)(F)O3)c(O)c2ncccc12 (stereo not drawn)
- GI50 (UO-31 renal): 295 nM
- TGI (UO-31 renal): 2290 nM
- GI50 (HOP-92 NSCLC): 382 nM
- TGI (HOP-92 NSCLC): > 100000 nM
- GI50 (SF-539 CNS): 378 nM
- TGI (SF-539 CNS): 3180 nM
- GI50 (HCT-15 colon): 307 nM
- TGI (HCT-15 colon): > 100000 nM
- GI50 (NCI-H460 lung): 198 nM
- TGI (NCI-H460 lung): > 100000 nM
- GI50 (NCI-H226 lung): 434 nM
- TGI (NCI-H226 lung): > 23900 nM
- GI50 (MDA-MB-231 breast): 440 nM
- TGI (MDA-MB-231 breast): > 42700 nM
- GI50 (HT29 colon): 474 nM
- TGI (HT29 colon): > 100000 nM
- GI50 (HL-60(TB) leukemia): 314 nM
- GI50 (SNB-19 CNS): 350 nM
- TGI (SNB-19 CNS): > 100000 nM
- GI50 (HOP-62 NSCLC): 392 nM
- TGI (HOP-62 NSCLC): > 100000 nM
- GI50 (786-0 renal): 452 nM
- TGI (786-0 renal): > 100000 nM
- GI50 (MDA-MB-435): 426 nM
- TGI (MDA-MB-435): > 100000 nM
- GI50 (SW-620 colon): 531 nM
- TGI (SW-620 colon): > 100000 nM
- GI50 (SK-MEL-2 melanoma): 375 nM
- TGI (SK-MEL-2 melanoma): > 100000 nM
- GI50 (OVCAR-3 ovarian): 376 nM
- TGI (OVCAR-3 ovarian): > 100000 nM
- GI50 (DU-145 prostate): 461 nM
- TGI (DU-145 prostate): > 100000 nM
- GI50 (MCF7 breast): 303 nM
- TGI (MCF7 breast): > 100000 nM
- GI50 (LOX IMVI melanoma): 272 nM
- GI50 (OVCAR-4 ovarian): 476 nM
- TGI (OVCAR-4 ovarian): > 100000 nM
- GI50 (MOLT-4 leukemia): 344 nM
- TGI (MOLT-4 leukemia): > 100000 nM
- GI50 (SK-OV-3 ovarian): 344 nM
- TGI (SK-OV-3 ovarian): > 22300 nM
- GI50 (SR leukemia): 340 nM
- TGI (SR leukemia): > 100000 nM
- GI50 (SF-268 CNS): 420 nM
- TGI (SF-268 CNS): > 100000 nM
- GI50 (SK-MEL-28 melanoma): 405 nM
- TGI (SK-MEL-28 melanoma): > 100000 nM
- GI50 (IGROV1 ovarian): 313 nM
- TGI (IGROV1 ovarian): > 32300 nM
- GI50 (K-562 leukemia): 334 nM
- TGI (K-562 leukemia): > 100000 nM
- GI50 (KM12 colon): 468 nM
- TGI (KM12 colon): > 100000 nM
- GI50 (SNB-75 CNS): 289 nM
- TGI (SNB-75 CNS): > 100000 nM
- GI50 (A498 renal): > 100000 nM
- TGI (A498 renal): > 100000 nM
- GI50 (RXF 393 renal): 502 nM
- TGI (RXF 393 renal): > 30700 nM
- GI50 (NCI-H23 lung): 352 nM
- TGI (NCI-H23 lung): 5540 nM
- GI50 (UACC-257 melanoma): 718 nM
- TGI (UACC-257 melanoma): > 100000 nM
- GI50 (OVCAR-5 ovarian): 447 nM
- TGI (OVCAR-5 ovarian): > 100000 nM
- GI50 (U251 CNS): 210 nM
- TGI (U251 CNS): > 100000 nM
- GI50 (CCRF-CEM leukemia): 390 nM
- TGI (CCRF-CEM leukemia): > 100000 nM
- GI50 (NCI-H522 lung): 399 nM
- TGI (NCI-H522 lung): > 100000 nM
- GI50 (HS 578T breast): 433 nM
- TGI (HS 578T breast): > 100000 nM
- GI50 (T-47D breast): 393 nM
- TGI (T-47D breast): > 100000 nM
- GI50 (A549 NSCLC): 418 nM
- TGI (A549 NSCLC): > 100000 nM
- GI50 (M14 melanoma): 411 nM
- TGI (M14 melanoma): 2660 nM
- GI50 (HCC-2998 colon): 340 nM
- GI50 (COLO 205 colon): 437 nM
- TGI (COLO 205 colon): > 100000 nM
- GI50 (MALME-3M melanoma): 522 nM
- TGI (MALME-3M melanoma): > 25400 nM
- GI50 (NCI/ADR-RES ovarian): 1600 nM
- TGI (NCI/ADR-RES ovarian): 15300 nM
- GI50 (SN12C renal): 349 nM
- TGI (SN12C renal): > 100000 nM
- GI50 (EKVX NSCLC): 349 nM
- TGI (EKVX NSCLC): > 40600 nM
- GI50 (PC-3 prostate): 275 nM
- TGI (PC-3 prostate): > 100000 nM
- GI50 (BT-549 breast): 224 nM
- TGI (BT-549 breast): > 100000 nM
- GI50 (HCT-116 colon): 420 nM
- TGI (HCT-116 colon): > 100000 nM
- GI50 (UACC-62 melanoma): 282 nM
- TGI (UACC-62 melanoma): 1140 nM
- GI50 (SK-MEL-5 melanoma): 226 nM
- TGI (SK-MEL-5 melanoma): 562 nM
- GI50 (MDA-MB-468 breast): 473 nM
- TGI (MDA-MB-468 breast): 3130 nM
- GI50 (RPMI-8226 leukemia): 350 nM
- TGI (RPMI-8226 leukemia): > 100000 nM
- GI50 (TK-10 renal): 474 nM
- TGI (TK-10 renal): > 100000 nM
- GI50 (ACHN renal): 359 nM
- TGI (ACHN renal): > 100000 nM
- GI50 (OVCAR-8 ovarian): 364 nM
- TGI (OVCAR-8 ovarian): > 100000 nM
- GI50 (SF-295 CNS): 275 nM
- TGI (SF-295 CNS): > 100000 nM
